What was measured:
[1] = species: Homo sapiens; assay: Liver toxicity in human assessed as induction of drug-induced liver injury by measuring severity class index
[2] = species: Homo sapiens; assay: Liver toxicity in human assessed as induction of drug-induced liver injury by measuring verified drug-induced liver injury concern status
Throughout, for DILI severity class: key of the grades not given here.

| Compound | DILI_severity_class [1] | DILI_Concern [2] |
| --- | --- | --- |
| CC(O)(P(=O)(O)O)P(=O)(O)O [ETIDRONIC ACID] | 0 | No-Dili-Concern |
| CCc1cccc2c3c([nH]c12)C(CC)(CC(=O)O)OCC3 (centres undefined) [ETODOLAC] | 8 | Most-Dili-Concern |
| CCOC(=O)c1cncn1[C@H](C)c1ccccc1 [ETOMIDATE] | 0 | No-Dili-Concern |
| C#C[C@]1(O)CC[C@H]2[C@@H]3CCC4=CC(=O)CC[C@@H]4[C@H]3C(=C)C[C@@]21CC [ETONOGESTREL] | 5 | Ambiguous-Dili-Concern |
| COc1cc([C@@H]2c3cc4c(cc3[C@@H](O[C@@H]3O[C@@H]5CO[C@@H](C)O[C@H]5[C@H](O)[C@H]3O)[C@H]3COC(=O)[C@H]23)OCO4)cc(OC)c1O [ETOPOSIDE] | 3 | Less-Dili-Concern |
| Cc1cc(C#N)cc(C)c1Oc1nc(Nc2ccc(C#N)cc2)nc(N)c1Br [ETRAVIRINE] | 8 | Most-Dili-Concern |
| CO[C@H]1C[C@@H]2CC[C@@H](C)[C@@](O)(O2)C(=O)C(=O)N2CCCC[C@H]2C(=O)O[C@H]([C@H](C)C[C@@H]2CC[C@@H](OCCO)[C@H](OC)C2)CC(=O)[C@H](C)/C=C(\C)[C@@H](O)[C@@H](OC)C(=O)[C@H](C)C[C@H](C)/C=C/C=C/C=C/1C [EVEROLIMUS] | 4 | Ambiguous-Dili-Concern |
| C/C(=N\O)C(C)NCC(C)(C)CNC(C)/C(C)=N/O (centres undefined) [EXAMETAZIME] | 0 | No-Dili-Concern |
| C=C1C[C@@H]2[C@H](CC[C@]3(C)C(=O)CC[C@@H]23)[C@@]2(C)C=CC(=O)C=C12 [EXEMESTANE] | 4 | Most-Dili-Concern |
| O=C(c1cc(O)c(O)c(O)c1)c1ccc(O)c(O)c1O [EXIFONE] | 8 | Most-Dili-Concern |
| O=C1[C@H](CC[C@H](O)c2ccc(F)cc2)[C@@H](c2ccc(O)cc2)N1c1ccc(F)cc1 [EZETIMIBE] | 3 | Less-Dili-Concern |
| CN1CCC(Nc2ncc3ncnc(Nc4ccc(F)c(Cl)c4)c3n2)CC1 [FALNIDAMOL] | 8 | Most-Dili-Concern |
| CC(=O)OCC(CCn1cnc2cnc(N)nc21)COC(C)=O [FAMCICLOVIR] | 3 | Ambiguous-Dili-Concern |
| NC(N)=Nc1nc(CSCCC(N)=NS(N)(=O)=O)cs1 [FAMOTIDINE] | 3 | Less-Dili-Concern |
| Cc1nc(-c2ccc(OCC(C)C)c(C#N)c2)sc1C(=O)O [FEBUXOSTAT] | 8 | Most-Dili-Concern |
| NC(=O)OCC(COC(N)=O)c1ccccc1 [FELBAMATE] | 7 | Most-Dili-Concern |
| CCOC(=O)C1=C(C)NC(C)=C(C(=O)OC)C1c1cccc(Cl)c1Cl (centres undefined) [FELODIPINE] | 3 | Less-Dili-Concern |
| O=C(O)Cc1csc(-c2ccc(Cl)cc2)n1 [FENCLOZIC ACID] | 8 | Most-Dili-Concern |
| CC(C)OC(=O)C(C)(C)Oc1ccc(C(=O)c2ccc(Cl)cc2)cc1 [FENOFIBRATE] | 3 | Less-Dili-Concern |

| Compound | DILI_severity_class [1] | DILI_Concern [2] |
| --- | --- | --- |
| CC(C)(Oc1ccc(C(=O)c2ccc(Cl)cc2)cc1)C(=O)O [FENOFIBRIC ACID] | 2 | Ambiguous-Dili-Concern |
| Oc1ccc(C2CNCCc3c2cc(O)c(O)c3Cl)cc1 (centres undefined) [FENOLDOPAM] | 0 | No-Dili-Concern |
| CC(C(=O)O)c1cccc(Oc2ccccc2)c1 (centres undefined) [FENOPROFEN] | 8 | Most-Dili-Concern |
| CC(C)C(=O)Oc1ccc(CO)cc1[C@H](CCN(C(C)C)C(C)C)c1ccccc1 [FESOTERODINE] | 0 | No-Dili-Concern |
| CC(C)(C(=O)O)c1ccc(C(O)CCCN2CCC(C(O)(c3ccccc3)c3ccccc3)CC2)cc1 (centres undefined) [FEXOFENADINE] | 0 | No-Dili-Concern |
| O=c1[nH]c(=O)n([C@@H]2O[C@H](CO)[C@@H](O)[C@@H]2F)cc1I [FIALURIDINE] | 8 | Most-Dili-Concern |
| COc1cccc2c1[C@@H]1CN(CCCCn3c(=O)[nH]c4c(sc5ncc(-c6ccccc6)nc54)c3=O)C[C@@H]1CO2 [FIDUXOSIN] | 8 | Most-Dili-Concern |
| CC(C)(C)NC(=O)[C@H]1CC[C@H]2[C@@H]3CC[C@H]4NC(=O)C=C[C@]4(C)[C@H]3CC[C@]12C [FINASTERIDE] | 0 | Less-Dili-Concern |
| O=C(COc1ccc(Cl)cc1)N1CCN(Cc2ccc3c(c2)OCO3)CC1 [FIPEXIDE] | 8 | Most-Dili-Concern |
| Cc1c(-c2ccccc2)oc2c(C(=O)OCCN3CCCCC3)cccc2c1=O [FLAVOXATE] | 0 | No-Dili-Concern |
| O=C(NCC1CCCCN1)c1cc(OCC(F)(F)F)ccc1OCC(F)(F)F (centres undefined) [FLECAINIDE] | 7 | Less-Dili-Concern |
| OC(Cn1cncn1)(Cn1cncn1)c1ccc(F)cc1F [FLUCONAZOLE] | 8 | Most-Dili-Concern |
| Nc1nc(=O)[nH]cc1F [FLUCYTOSINE] | 3 | Ambiguous-Dili-Concern |
| Nc1nc(F)nc2c1ncn2[C@@H]1O[C@H](COP(=O)(O)O)[C@@H](O)[C@@H]1O [FLUDARABINE PHOSPHATE] | 0 | No-Dili-Concern |
| C[C@]12CCC(=O)C=C1CC[C@H]1[C@@H]3CC[C@](O)(C(=O)CO)[C@@]3(C)C[C@H](O)[C@@]12F [FLUDROCORTISONE] | 0 | No-Dili-Concern |
| CCOC(=O)c1ncn2c1CN(C)C(=O)c1cc(F)ccc1-2 [FLUMAZENIL] | 0 | No-Dili-Concern |
| O=c1[nH]cc(F)c(=O)[nH]1 [FLUOROURACIL] | 0 | Less-Dili-Concern |
| CNCCC(Oc1ccc(C(F)(F)F)cc1)c1ccccc1 (centres undefined) [FLUOXETINE] | 3 | Less-Dili-Concern |
| C[C@]1(O)CC[C@H]2[C@@H]3CCC4=CC(=O)CC[C@]4(C)[C@@]3(F)[C@@H](O)C[C@@]21C [FLUOXYMESTERONE] | 8 | Ambiguous-Dili-Concern |

| Compound | DILI_severity_class [1] | DILI_Concern [2] |
| --- | --- | --- |
| OCCN1CCN(CCCN2c3ccccc3Sc3ccc(C(F)(F)F)cc32)CC1 [FLUPHENAZINE] | 3 | Ambiguous-Dili-Concern |
| CCN(CC)CCN1C(=O)CN=C(c2ccccc2F)c2cc(Cl)ccc21 [FLURAZEPAM] | 4 | Less-Dili-Concern |
| CC(C(=O)O)c1ccc(-c2ccccc2)c(F)c1 (centres undefined) [FLURBIPROFEN] | 3 | Ambiguous-Dili-Concern |
| CC(C)C(=O)Nc1ccc([N+](=O)[O-])c(C(F)(F)F)c1 [FLUTAMIDE] | 8 | Most-Dili-Concern |
| CC(C)n1c(/C=C/C(O)CC(O)CC(=O)O)c(-c2ccc(F)cc2)c2ccccc21 (centres undefined) [FLUVASTATIN] | 3 | Less-Dili-Concern |
| COCCCC/C(=N\OCCN)c1ccc(C(F)(F)F)cc1 [FLUVOXAMINE] | 3 | Ambiguous-Dili-Concern |
| Nc1nc2ncc(CNc3ccc(C(=O)N[C@@H](CCC(=O)O)C(=O)O)cc3)nc2c(=O)[nH]1 [FOLIC ACID] | 0 | No-Dili-Concern |
| Cc1cn[nH]c1 [FOMEPIZOLE] | 3 | Ambiguous-Dili-Concern |
| CO[C@H]1O[C@H](COS(=O)(=O)[O-])[C@@H](O[C@@H]2O[C@@H](C(=O)[O-])[C@@H](O[C@H]3O[C@H](COS(=O)(=O)[O-])[C@@H](O[C@@H]4O[C@H](C(=O)[O-])[C@@H](O[C@H]5O[C@H](COS(=O)(=O)[O-])[C@@H](O)[C@H](O)[C@H]5NS(=O)(=O)[O-])[C@H](O)[C@H]4O)[C@H](OS(=O)(=O)[O-])[C@H]3NS(=O)(=O)[O-])[C@H](O)[C@H]2OS(=O)(=O)[O-])[C@H](O)[C@H]1NS(=O)(=O)[O-].[Na+].[Na+].[Na+].[Na+].[Na+].[Na+].[Na+].[Na+].[Na+].[Na+] [FONDAPARINUX SODIUM] | 3 | Less-Dili-Concern |
| CC(C)CN(C[C@@H](OP(=O)(O)O)[C@H](Cc1ccccc1)NC(=O)O[C@H]1CCOC1)S(=O)(=O)c1ccc(N)cc1 [FOSAMPRENAVIR] | 3 | Ambiguous-Dili-Concern |
| C[C@@H](O[C@H]1OCCN(Cc2nc(O)n(P(=O)(O)O)n2)[C@H]1c1ccc(F)cc1)c1cc(C(F)(F)F)cc(C(F)(F)F)c1 [FOSAPREPITANT] | 3 | Ambiguous-Dili-Concern |
| O=C(O)P(=O)(O)O [FOSCARNET] | 3 | Ambiguous-Dili-Concern |
| C[C@@H]1O[C@@H]1P(=O)(O)O [FOSFOMYCIN] | 6 | Less-Dili-Concern |
| CCC(=O)O[C@@H](O[P@](=O)(CCCCc1ccccc1)CC(=O)N1C[C@H](C2CCCCC2)C[C@H]1C(=O)O)C(C)C [FOSINOPRIL] | 3 | Less-Dili-Concern |
| O=C1NC(c2ccccc2)(c2ccccc2)C(=O)N1COP(=O)(O)O [FOSPHENYTOIN] | 8 | Most-Dili-Concern |
| CC(C)c1cccc(C(C)C)c1OCOP(=O)(O)O [FOSPROPOFOL] | 0 | Less-Dili-Concern |
| CN[C@@H]1CCc2[nH]c3ccc(C(N)=O)cc3c2C1 [FROVATRIPTAN] | 0 | No-Dili-Concern |
| C[C@]12CC[C@@H]3c4ccc(O)cc4C[C@@H](CCCCCCCCC[S+]([O-])CCCC(F)(F)C(F)(F)F)[C@H]3[C@@H]1CC[C@@H]2O (some centres undefined) [FULVESTRANT] | 7 | Ambiguous-Dili-Concern |
| NCC1(CC(=O)O)CCCCC1 [GABAPENTIN] | 3 | Less-Dili-Concern |

— ChEMBL document CHEMBL4028802, “DILIrank: the largest reference drug list ranked by the risk for developing drug-induced liver injury in humans” (Drug Discov Today, 2016)
